Data: paper PMC6627558, “Structures and Bioactivities of Six New Triterpene Glycosides, Psolusosides E, F, G, H, H1, and I and the Corrected Structure of Psolusoside B from the Sea Cucumber Psolus fabricii” (Marine Drugs, 2019)
Where a name gives a salt, the structure may show the parent alone.

Legend:
[1] = test system: mouse erythrocytes; assay: Hemolytic activity against mouse erythrocytes; type: cell-based
Protocol: (§1) Blood was taken from CD-1 mice (18–20 g). The mice were anesthetized with diethyl ether, their chests were rapidly opened, and blood was collected in cold (4 °C) 10 mM phosphate-buffered saline, pH 7.4 (PBS) without anticoagulant. Erythrocytes were washed 3 times in PBS using at least 10 vol. of washing solution by centrifugation (2000 rpm) for 5 min. Erythrocytes were used at a concentration that provided an optical density of 1.0 at 700 nm for a non-hemolyzed sample. Then, 20 μL of a water solution of test substance with a fixed concentration was added to a well of a 96-well plate containing 180 μL of the erythrocyte suspension. Erythrocyte suspension was incubated with substances for 24 h at 37 °C. After that, the optical density of the obtained solutions was measured and ED50 for hemolytic activity of each compound was calculated.

[2] = test system: ascite form of mouse Ehrlich carcinoma cells; assay: Cytotoxic activity against ascite form of mouse Ehrlich carcinoma cells (nonspecific esterase / MTT assay); type: cell-based
Protocol: (§2) The museum tetraploid strain of murine ascite Ehrlich carcinoma cells from the All-Russian Oncology Center (Moscow, Russia) was used. The cells were separated from the ascites, which were collected on day 7 after inoculation in mouse CD-1 line. The cells were washed of the ascites triply and resuspended in RPMI-1640 medium containing 8 μg/mL gentamicin (BioloT, St-Petersburg, Russia). Neuroblastoma Neuro 2A cells were cultured in DMEM medium containing 10% fetal bovine serum (FBS), (BioloT, St-Petersburg, Russia) and normal epithelial JB-6 cells were cultured in DMEM medium containing 5% fetal bovine serum (FBS), (BioloT, St-Petersburg, Russia) and 1% penicillin/streptomycine (Invitrogen). The HT-29 (ATCC # HTB-38) human colon cancer cell line was grown in monolayer in McCoy’s 5A medium supplemented with 10% (v/v) heat-inactivated FBS, 2 mM L-glutamine, and 1% penicillin-streptomycin in a humidified atmosphere containing 5% CO2. Cells were maintained in a sterile environment and kept in an incubator at 5% CO2 and 37 °C to promote growth. HT-29 cells were sub-cultured every 3–4 days by rinsing with phosphate buffered saline (PBS), adding trypsin to detach the cells from the tissue culture flask, and transferring 10%–20% of the harvested cells to a new flask containing fresh growth media.
(§3) Cytotoxic activity against ascite form of mouse Ehrlich carcinoma cells was investigated by nonspecific esterase activity assay. In total, 10µL of the test substance solution and 100 μL of the cell suspension were placed into each well of a 96-well microplate. The plate was incubated in a CO2 incubator at 37 °C for 1 or 24 h. A stock solution of the probe fluorescein diacetate (FDA; Sigma, St. Louis, MO, USA) in DMSO (1 mg/mL) was prepared. After incubation of the cells with test compounds, 10 μL of FDA solution (50 μg/mL) was added to each well and the plate was incubated at 37 °C for 15 min. Cells were washed with PBS, and fluorescence was measured with a Fluoroskan Ascent plate reader (Thermo Labsystems, Helsinky, Finland) at λex = 485 nm and λem = 518 nm. All experiments were repeated in triplicate. Cytotoxic activity was expressed as the percent of cell viability. Nonspecific esterase activity assay has been used for determination of cytotoxicity against neuroblastoma Neuro 2A and normal epithelial JB-6 cells.
(§4) The solutions of tested substances in different concentrations (20 µL) and cell suspension (200 µL) were added in wells of 96-well plate and incubated over night at 37 °C and 5% CO2. After incubation, the cells were sedimented by centrifugation, 200 µL of medium from each well were collected, and 100 µL of pure medium were added. Then, 10 µL of MTT solution […] (Sigma, St. Louis, MO, USA) were added in each well. The plate was incubated for 4 h, after which 100 µL SDS-HCl were added to each well, and the plate was incubated at 37 °C for 4–18 h. Optical density was measured at 570 nm and 630–690 nm. Cytotoxic activity of the substances was calculated as the concentration that caused 50% metabolic cell activity inhibition (IC50). The MTT assay has been used for determination of cytotoxic activity against Ehrlich carcinoma cells.

[3] = test system: mouse neuroblastoma Neuro 2A cells; assay: Cytotoxicity against neuroblastoma Neuro 2A cells (nonspecific esterase activity assay); type: cell-based
Protocol: as §2, §3

[4] = test system: normal epithelial JB-6 cells; assay: Cytotoxicity against normal epithelial JB-6 cells (nonspecific esterase activity assay); type: cell-based, mouse
Protocol: as §2, §3

[5] = test system: human colorectal adenocarcinoma HT-29 cells; assay: MTS assay, cell viability of HT-29 cells; type: cell-based; details: 0–20 μM, 24 h
Protocol: as §2
The HT-29 cells (1.0 × 10^4/well) were seeded in 96-well plates for 24 h at 37 °C in 5% CO2 incubator. The cells were treated with the tested substances at concentrations range from 0 to 20 μM for an additional 24 h. Subsequently, cells were incubated with 15 μL MTS reagent for 3 h and the absorbance in each well was measured at 490/630 nm using microplate reader “Power Wave XS” (Bio Tek, Winooski, VT, USA). All the experiments were repeated three times, and the mean absorbance values were calculated. The results are expressed as the percentage of inhibition that produced a reduction in absorbance by compound’s treatment compared to the non-treated cells (control).

[6] = test system: human colorectal adenocarcinoma HT-29 cells; assay: Soft agar assay, colony formation and growth of HT-29 cells; type: cell-based; details: 0–10 μM, 14 days, read-out: Soft Agar Assay ICCF50 (inhibition of colony formation)
Protocol: as §2
The HT-29 cells (8.0 × 10^3) were seeded in 6-well plate and treated with the tested compounds at concentrations range 0–10 μM in 1 mL of 0.3% Basal Medium Eagle (BME) agar containing 10% FBS, 2mM L-glutamine, and 25 μg/mL gentamicin. The cultures were maintained at 37 °C in a 5% CO2 incubator for 14 days, and the cell’s colonies were scored using a microscope “Motic AE 20” (Scientific Instrument Company, Campbell, CA, USA) and the Motic Image Plus version 2.0 (Scientific Instrument Company, Campbell, CA, USA) computer program.

[7] = Hemolytic activity against mouse erythrocytes; type: cell-based; details: CD-1, mouse erythrocyte suspension, pH 7.4, 24 h at 37 °C, read-out: Cytotoxicity EC50, Erhythrocytes (hemolytic activity)
Protocol: as §1

[8] = Cytotoxic activity against ascite form of mouse Ehrlich carcinoma cells (nonspecific esterase / MTT assay); type: cell-based; details: ascite form of mouse Ehrlich carcinoma cells; read-out: Cytotoxicity EC50, Ehrlich carcinoma
Protocol: as §2, §3, §4

[9] = Cytotoxicity against neuroblastoma Neuro 2A cells (nonspecific esterase activity assay); type: cell-based, mouse; details: mouse neuroblastoma Neuro 2A cells
Protocol: as §2, §3

[10] = Cytotoxicity against normal epithelial JB-6 cells (nonspecific esterase activity assay); type: cell-based, mouse; details: mouse, normal epithelial JB-6 cells
Protocol: as §2, §3

SMILES	EC50 ([1]; 24 h at 37 °C, read-out: Cytotoxicity EC50, Erhythrocytes (hemolytic activity)) [µM]	cytotoxic action against mouse Ehrlich carcinoma cells (in words) ([2]; ascite form)	EC50 ([2]; ascite form of mouse Ehrlich carcinoma cells, read-out: Cytotoxicity EC50, Ehrlich carcinoma) [µM]	EC50 ([3]; mouse neuroblastoma Neuro 2A cells) [µM]	EC50 ([4]; normal epithelial JB-6 cells) [µM]	IC50 [5] [µM]	IC50 [6] [µM]	EC50 at 24 h [7] [µM]	EC50 [8] [µM]	EC50 [9] [µM]	activity against Neuro 2A cells (in words) ([3]; Neuro 2A cells)	EC50 [10] [µM]	cytotoxicity against normal JB-6 cells (in words) ([4]; JB-6 cells)	hemolytic activity (in words) [1]	IC50 ([5]; Homo sapiens) [µM]	IC50 ([6]; Homo sapiens, 336 h) [µM]
C=C(C)CCC[C@]1(C)OC(=O)[C@]23CC=C4[C@@H](CC[C@H]5C(C)(C)[C@@H](O[C@@H]6OC[C@@H](O)[C@H](O)[C@H]6O[C@@H]6O[C@H](C)[C@@H](O[C@@H]7O[C@H](COS(=O)(=O)[O-])[C@@H](O)[C@H](O[C@@H]8O[C@H](COS(=O)(=O)[O-])[C@@H](O)[C@H](OC)[C@H]8O)[C@H]7O)[C@H](O)[C@H]6O)CC[C@]45C)[C@]2(C)CC(=O)[C@@H]31.[Na+].[Na+] [Psolusoside A, 3β-O-[6-O-sodium sulfate-3-O-methyl-β-D-glucopyranosyl-(1→3)-6-O-sodium-sulfate-β-D-glucopyranosyl-(1→4)-β-D-quinovopyranosyl-(1→2)-β-D-xylopyranosyl]-16-ketoholosta-9(11),25-diene, reference compound]	1.4	moderate cytotoxic action	30.9	2.9	7.5	> 20	> 10	–	–	–	–	–	–	–	–	–
C=C(C)CCC[C@]1(C)OC(=O)[C@]23CC=C4[C@@H](CC[C@H]5C(C)(C)[C@@H](O[C@@H]6OC[C@@H](O)[C@H](O)[C@H]6O[C@@H]6O[C@H](CO)[C@@H](O[C@@H]7O[C@H](COS(=O)(=O)O)[C@@H](O)[C@H](O[C@@H]8O[C@H](COS(=O)(=O)O)[C@@H](O)[C@H](OC)[C@H]8O)[C@H]7O)[C@H](O)[C@H]6O)CC[C@]45C)[C@]2(C)CC(=O)[C@@H]31 [Psolusoside G (4), 3β-O-[6-O-sodium-sulfate-3-O-methyl-β-D-glucopyranosyl-(1→3)-6-O-sodium-sulfate-β-D-glucopyranosyl-(1→4)-β-D-glucopyranosyl-(1→2)-β-D-xylopyranosyl]-16-ketoholosta-9(11),25-diene]	–	–	–	–	–	–	–	4.2	98.3	7.3	high activity	> 100	not cytotoxic	–	–	–
C=C(C)CCC[C@]1(C)OC(=O)[C@]23CC[C@@H]4C(=CC[C@H]5C(C)(C)[C@@H](O[C@@H]6OC[C@@H](O[C@@H]7O[C@H](COS(=O)(=O)O)[C@@H](O)[C@H](O)[C@H]7O)[C@H](O)[C@H]6O[C@@H]6OC[C@@H](O[C@@H]7O[C@H](COS(=O)(=O)O)[C@@H](O)[C@H](O)[C@H]7O)[C@H](O)[C@H]6O)CC[C@]45C)[C@]2(C)C[C@H](OC(C)=O)[C@@H]31 [Psolusoside I (7), 3β-O-{6-O-sodium sulfate-β-D-glucopyranosyl-(1→4)-β-D-xylopyranosyl-(1→2)-[6-O-sodium sulfate-β-D-glucopyranosyl-(1→4)]-β-D-xylopyranosyl}-16β-acetoxyholosta-7,25-diene]	–	–	–	–	–	–	–	18.3	87.4	26.8	–	37.2	–	moderate hemolytic activity	> 20	10 ± 0.4
